In assay [1] the test system is dATP-3′-ONH2, dTTP-3′-ONH2, dCTP-3′-ONH2 or dGTP-3′-ONH2. As to the kind of experiment: Deprotection study with various 3′-O-NH2 nucleotides (96-well screening, RP-HPLC). The conditions noted are these: for pH of highest cleavage rate (optimal pH): 2 mM agent, 1 mM dNTP-3′-ONH2, pH 5.0-8.25. On the procedure:
The screening tests were performed in a 96-well plate with a reaction volume of 100 uL. Nucleoside triphosphate (dATP-3′-ONH2, dTTP-3′-ONH2, dCTP-3′-ONH2 or dGTP-3′-ONH2) were taken at 1 mM final concentration in one of four 50 mM buffers (A: sodium acetate pH 5.0, B: sodium phosphate pH 6.0, C: sodium phosphate 7.0, D: sodium bicarbonate pH around 8, i.e. 8.25). Tetrasodium carbonylbisphosphonate was added to the dNTPs solutions at 2 mM final concentration and incubated during 5, 20 or 60 mins prior to quenching with 2× concentration of hydroxylamine hydrochloride. The 96-well plate were agitated with Thermomixer at 25° C. or 40° C. The catalytic effect of magnesium on cleavage rate was also investigated. For this purpose, the same experiments were performed in the presence of 20 mM magnesium sulfate. Prior to HPLC analysis reaction mixtures were additionally quenched with acetone to convert 3′-ONH2 to acetoxime form. The samples were analyzed by RP-HPLC with gradual gradient of acetonitrile in 50 mM TEAB buffer (pH 8.5). The cleavage rate was determined based on the ratio between dNTP-3′-OH and dNTP-3′-acetoxime.
Xterra RP C18 Column: 4.6*50 mm, (3.5 um silica), Buffer A: 50 mM TEAA (pH 7.0), Buffer B: 100% ACN. Method: 0-2 min—0% ACN B, 6 min—10% ACN, 8 min—30% ACN, 8-10 min—100% ACN. Flowrate: 1.5 mL/min, no loop insert.

Where two headings read alike, the source gives them in different places.

On to `CC(=O)P(=O)(O)O` [acetylphosphonic acid, Acetylphosphonic acid], for which the “conversion of 3′-ONH2 to 3′-OH” value in the assay on dTTP-3′-ONH2 (2 eq, 60 minutes, pH 6 or 7, 25° C.) is recorded as “about 60%”.

Turning to `O=C(P(=O)(O)O)P(=O)(O)O` [carbonylbisphosphonate, Tetrasodium Carbonylbisphosphonate], the entries for the “pH of highest cleavage rate (optimal pH)” value in assay [1] and in assay [1] (listed as carbonyl bisphosphonate) were “around 5” and 5.0, respectively. Moreover, in assay [1] (20 mM magnesium sulfate), the “Mg (II) impact on cleavage yield” value is “Magnesium markedly facilitates the cleavage yield at higher pH”. In addition, the “conversion of 3′-ONH2 to 3′-OH” value in the assay with dTTP-3′-ONH2 (2 eq deprotecting agent, pH 5, 5 min, 25° C., 1 mM dTTP-3′-ONH2) was found to be 100%.

Regarding `O=NO` [sodium nitrite, reference compound], in the assay on dTTP-3′-ONH2 (pH 5), the “conversion to dTTP-OH” value was “about 80%” and the “reaction speed with oxyamines compared with carbonylbisphosphonate” value is “several times slower”.

Source of the values: US20250154547A1, “REAGENTS AND METHODS USED IN DEPROTECTION OF 3'-O-AMINO POLYNUCLEOTIDES” (priority 2023, published 2025).
